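Test compounds were applied to cells in 96-well plates for 48 hours at 5 doses. GI50 is the concentration that inhibits growth by half.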 The source made the active and inactive calls. No stated cut-off is given here; in the data, active = GI50 up to about 1.1 µM and inactive = higher.
Assays:
Assay in all cases: NCI anticancer screen, dose series, 48 h
NCI-H226 = system: NCI-H226
HOP-62 = system: HOP-62
KM-20L2 = system: KM-20L2
RXF 393 = system: RXF 393
IGROV-1 = system: IGROV-1
HCT-15 = system: HCT-15
A498 = system: A498
HT-29 = system: HT-29
CAKI-1 = system: CAKI-1
M19-MEL = system: M19-MEL
SF-539 = system: SF-539
DMS-273 = system: DMS-273
MCF7 = system: MCF7
KM12 = system: KM12
OVCAR-4 = system: OVCAR-4
A549 = system: A549
SR = system: SR
M14 = system: M14
TK-10 = system: TK-10
BT-549 = system: BT-549

Row | SMILES | GI50 (NCI-H226) | GI50 (HOP-62) | GI50 (KM-20L2) | GI50 (RXF 393) | GI50 (IGROV-1) | GI50 (HCT-15) [µM] | GI50 (A498) | GI50 (HT-29) | GI50 (CAKI-1) | GI50 (M19-MEL) | GI50 (SF-539) | GI50 (DMS-273) | GI50 (MCF7) | GI50 (KM12) | GI50 (OVCAR-4) | GI50 (A549) | GI50 (SR) | GI50 (M14) | GI50 (TK-10) | GI50 (BT-549)
1 | CN(C)C(=O)N(CCCl)N=O | > 10 µM (inactive) | > 100 µM (inactive) | > 100 µM (inactive) | > 100 µM (inactive) | > 100 µM (inactive) | > 100 | > 100 µM (inactive) | > 100 µM (inactive) | > 100 µM (inactive) | > 100 µM (inactive) | > 100 µM (inactive) | > 100 µM (inactive) | > 100 µM (inactive) | > 100 µM (inactive) | > 100 µM (inactive) | > 100 µM (inactive) | – | – | – | –
2 | CCCCc1nccc2c(C)c3[nH]c4ccccc4c3cc12 | 7.57 µM (inactive) | 3.68 µM (inactive) | 2.86 µM (inactive) | 2.22 µM (inactive) | 3.33 µM (inactive) | 2.07 | 4.67 µM (inactive) | 2.62 µM (inactive) | 2.59 µM (inactive) | 3.1 µM (inactive) | 2.45 µM (inactive) | 0.883 µM (active) | 2.69 µM (inactive) | 3.09 µM (inactive) | 3.91 µM (inactive) | 3.87 µM (inactive) | – | – | – | –
3 | O=C1C2C3C=CC(C2C(=O)N1CO)C1C2C(=O)N(CO)C(=O)C2C31 (stereo unspecified) | > 100 µM (inactive) | > 100 µM (inactive) | > 31.6 µM (inactive) | > 81.7 µM (inactive) | > 100 µM (inactive) | 37 | > 100 µM (inactive) | 92.5 µM (inactive) | > 100 µM (inactive) | > 68.5 µM (inactive) | > 61 µM (inactive) | > 44.5 µM (inactive) | – | > 74.3 µM (inactive) | > 45.8 µM (inactive) | > 54.2 µM (inactive) | 22.5 µM (inactive) | > 100 µM (inactive) | > 100 µM (inactive) | –
4 | COc1ccc(/C(Cl)=C(\C=O)c2ccc(Cl)cc2)cc1 | 6.35 µM (inactive) | 19.4 µM (inactive) | 6.41 µM (inactive) | 10.7 µM (inactive) | 7.71 µM (inactive) | 3.41 | 30.1 µM (inactive) | 4.84 µM (inactive) | 9.51 µM (inactive) | 9.77 µM (inactive) | 9.16 µM (inactive) | 4.34 µM (inactive) | – | – | 8.61 µM (inactive) | 5.61 µM (inactive) | 2.69 µM (inactive) | 14.1 µM (inactive) | 6.15 µM (inactive) | –
5 | NCCCCNCCCNC(=O)c1nc(-c2csc(CCN)n2)sc1Cl | > 100 µM (inactive) | > 100 µM (inactive) | > 100 µM (inactive) | > 100 µM (inactive) | > 100 µM (inactive) | > 100 | > 100 µM (inactive) | > 100 µM (inactive) | > 100 µM (inactive) | > 100 µM (inactive) | > 100 µM (inactive) | > 100 µM (inactive) | – | > 100 µM (inactive) | > 100 µM (inactive) | > 100 µM (inactive) | > 100 µM (inactive) | > 100 µM (inactive) | > 100 µM (inactive) | –
6 | CC1=C(O)C(=O)c2cn(C)cc2C1=O | > 100 µM (inactive) | > 100 µM (inactive) | > 100 µM (inactive) | > 100 µM (inactive) | > 100 µM (inactive) | > 100 | > 100 µM (inactive) | > 100 µM (inactive) | > 100 µM (inactive) | > 100 µM (inactive) | > 100 µM (inactive) | > 100 µM (inactive) | – | > 100 µM (inactive) | > 100 µM (inactive) | > 100 µM (inactive) | > 100 µM (inactive) | > 100 µM (inactive) | > 100 µM (inactive) | –
7 | CCC1CN2CCc3cc(OC)c(OC)cc3C2CC1CC1c2cc(OC)c(OC)cc2CCN1C(=O)C(Cc1c[nH]c2ccccc12)NC(=O)OC(C)(C)C (stereo unspecified) | 13.4 µM (inactive) | 4.91 µM (inactive) | 1.87 µM (inactive) | 2.67 µM (inactive) | 1.73 µM (inactive) | 2.58 | 6.65 µM (inactive) | 2.03 µM (inactive) | 6.84 µM (inactive) | 1.69 µM (inactive) | 2.34 µM (inactive) | 6.53 µM (inactive) | 2.31 µM (inactive) | 2.83 µM (inactive) | 1.7 µM (inactive) | 3.61 µM (inactive) | 1.73 µM (inactive) | 1.79 µM (inactive) | 7.83 µM (inactive) | 3.36 µM (inactive)
8 | O=C1C(Cl)=C(Cl)C(=O)N1C1C2CC3CC(C2)CC1C3 (stereo unspecified) | > 100 µM (inactive) | > 100 µM (inactive) | > 100 µM (inactive) | 94.6 µM (inactive) | > 100 µM (inactive) | > 100 | > 100 µM (inactive) | > 100 µM (inactive) | 38.3 µM (inactive) | > 100 µM (inactive) | > 100 µM (inactive) | > 100 µM (inactive) | – | – | > 100 µM (inactive) | > 100 µM (inactive) | 31 µM (inactive) | > 100 µM (inactive) | > 100 µM (inactive) | –
9 | CNc1ccc2ncccc2c1[N+](=O)[O-] | > 100 µM (inactive) | > 100 µM (inactive) | > 100 µM (inactive) | > 100 µM (inactive) | > 100 µM (inactive) | > 100 | > 100 µM (inactive) | > 100 µM (inactive) | > 100 µM (inactive) | > 100 µM (inactive) | > 100 µM (inactive) | > 100 µM (inactive) | – | > 100 µM (inactive) | > 100 µM (inactive) | > 100 µM (inactive) | > 100 µM (inactive) | > 100 µM (inactive) | > 100 µM (inactive) | –
10 | CCOC(=O)C(=O)Nc1c(CC)cccc1C(C)C | > 100 µM (inactive) | > 100 µM (inactive) | > 100 µM (inactive) | > 100 µM (inactive) | > 100 µM (inactive) | > 100 | > 100 µM (inactive) | > 100 µM (inactive) | > 100 µM (inactive) | > 100 µM (inactive) | > 100 µM (inactive) | > 100 µM (inactive) | – | > 100 µM (inactive) | > 100 µM (inactive) | > 100 µM (inactive) | 0.0151 µM (active) | > 100 µM (inactive) | > 100 µM (inactive) | –

Reference: ChEMBL document CHEMBL1201862, “PubChem BioAssay data set” (2004)
